Measurements reported in PMC10224329, “Design, Synthesis, and Antiproliferative Activity of Benzopyran-4-One-Isoxazole Hybrid Compounds” (Molecules, 2023).
“Also recorded” adds a separate entry of the source.

What was measured:
[1] = tested on: ABL1, c-Kit, c-Src, CDK2/cyclin A1, CSK, EGFR, mTOR/FRAP1, p38a/MAPK14, PKCa, and PI3K; assay: Protein kinase panel screen, overall; assay type: biochemical; settings: single dose of 20 μM, all kinases screened
Protocol: Therefore, selected compound 5a was screened against several protein kinases to explore the potential of these hybrid compounds as kinase inhibitors. The screening of compound 5a was performed on a panel of 9 kinases, viz., ABL1, c-Kit, c-Src, CDK2/cyclin A1, CSK, EGFR, mTOR/FRAP1, p38a/MAPK14, PKCa, and PI3K, at a dose of 20 μM. The respective positive controls were used for each kinase, and the kinase reaction was performed at 200 μM ATP concentration for all the kinases except for PI3K, which was performed at 10 µM ATP (Table 2). […] It appeared that compound 5a containing a 3-position substitution with an isoxazole ring and a 4-position with a carbonyl group has a detrimental effect on kinase inhibition. Previously 3-substituted benzopyran compound with a short alkyl chain of urea (NH-CO-NH-Et/Me/iPr) was reported with Abl kinase inhibitory activity in the range of 4–27 μM [36]. […] Due to prominent antiproliferative activity, these compounds may have some other targets for anticancer activity.
Compound 5a was tested at a single dose of 20 μM against 9 kinases, viz., Abl1, c-Kit, c-Src, CDK2/cyclin A1, CSK, EGFR, mTOR/FRAP1, p38a/MAPK14, PKCa, and PI3K using our previously reported protocol in duplicate by Reaction Biology Corporation. […]

[2] = Proteolytic stability in human serum (HPLC); assay type: in vitro ADME; settings: 37 °C
Protocol: These compounds were further explored towards degradation by proteolytic enzymes towards degradation. Compound 5a was investigated for proteolytic stability in the presence of human serum. It was incubated with human serum at 37 °C, and aliquots of the reaction mixture were analyzed via HPLC at different time points up to 2 h. The concentration of Compound 5a was measured by integrating the area under the curve (AUC) and correspondingly calculated from the standard curve of 5a at different concentrations (cf. Supplementary Materials, page no. 81–82).
The HPLC chromatogram of serum incubated with compound 5a for 80 min was illustrated in Figure 5. […]
HPLC analysis was carried out to evaluate the proteolytic stability of selected conjugate 5a in the presence of human serum. First, different concentrations of Compound 5a were analyzed using the analytical HPLC, and a standard curve was plotted for the different concentrations of Compound 5a versus the area under the curve. […] The initial time was recorded, and 100 μL aliquots of the reaction mixture were removed and added to methanol (200 μL) for precipitation of serum proteins in human serum. […] A linear gradient from 10% to 100% acetonitrile/water in 65 min with a flow rate of 1.0 mL/min was used, and the absorbance of the eluting peaks was detected at 254 nm. […]

degradation on incubation with human serum ([2]; after 2 h of incubation with human serum): completely degraded
half-life at 50 µM ([2]; human, human serum (25% v/v in RPMI media), human serum): ~13.6 min
Compound: Cc1noc(C)c1C(=O)OCc1coc2ccccc2c1=O [Compound 5a, (4-Oxo-4H-1-benzopyran-3-yl)methyl 3,5-dimethylisoxazole-4-carboxylate]
kinase inhibitory activity (in words) [1]: inactive; also recorded: did not show protein tyrosine kinase inhibitory activity
